Experiments:
PGD2 receptor [1] = biological target: T1, PGD2 receptor (Homo sapiens, UniProt Q13258); experiment: Binding to PGD2 Receptor (inhibition of [3H]PGD2 binding to human platelet membrane fraction); conditions: human platelet membrane fraction (0.1 mg), 5 nM [3H]PGD2, pH 7.4, 4° C., 90 min
T1 construct: A suspension adjusted to contain platelet at a final concentration of; endogenous in cells; host or cells: washed human platelets from peripheral blood of a healthy volunteer
T1 sequence (Q13258 1-359): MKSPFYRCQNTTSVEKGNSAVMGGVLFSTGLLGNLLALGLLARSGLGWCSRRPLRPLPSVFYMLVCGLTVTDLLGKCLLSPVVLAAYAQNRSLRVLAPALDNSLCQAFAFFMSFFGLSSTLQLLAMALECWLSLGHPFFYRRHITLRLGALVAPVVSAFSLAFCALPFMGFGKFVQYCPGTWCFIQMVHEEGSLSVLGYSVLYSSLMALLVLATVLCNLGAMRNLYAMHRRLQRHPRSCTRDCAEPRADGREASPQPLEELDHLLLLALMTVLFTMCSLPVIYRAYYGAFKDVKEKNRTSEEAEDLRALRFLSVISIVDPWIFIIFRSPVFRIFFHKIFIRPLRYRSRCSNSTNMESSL
Description: (1) Preparation of Human Platelet Membrane Fraction
Blood sample was obtained using a plastic syringe containing 3.8% sodium citrate from the vein of healthy volunteers (adult male and female), put into a plastic test tube and mixed gently by rotation. The sample was then centrifuged at 1800 rpm, 10 min at room temperature, and the supernatant containing PRP (platelet-rich plasma) was collected. The PRP was recentrifuged at2300 rpm, 22 min at room temperature to obtain platelets. The platelets were homogenized using a homogenizer (Ultra-Turrax) followed by centrifugation 3 times at 20,000 rpm, 10 min at 4° C. to obtain a platelet membrane fraction. After protein determination, the membrane fraction was adjusted to 2 mg/ml and preserved in a refrigerator at -80° C. until use.
(2) Binding to PGD2 Receptor
To a binding-reaction solution (50 mM Tris/HCl, pH 7.4, 5 mM MgCl2) (0.2 ml) were added to the human platelet membrane fraction (0.1 mg) and 5 nM [^3 H]PGD2 (115 Ci/mmol), and reacted at 4° C. for 90 min. After the reaction completed, the reaction mixture was filtered through a glass fiber filter paper, washed several times with cooled saline, and measured the radioactivity retained on the filter paper. The specific binding was calculated by subtracting the non-specific binding (the binding in the presence of 10 μM PGD2) from the total binding. The inhibitory activity of each compound was expressed as the concentration required for 50% inhibition (IC50), which was determined by depicting a substitution curve by plotting the binding ratio (%) in the presence of each compound, where the binding ratio in the absence of a test compound is 100%.

eosinophils = experiment: Infiltration of eosinophils in the nasal cavity by an antigen challenge; format: in vivo; conditions: guinea pig, oral 1, 3 and 10 mg/kg, 1 hr before antigen challenge; marked columns not given
Description: Activity on Infiltration of Eosionophils in the Nasal Cavity by an Antigen Challenge
To a Hartley male guinea pig was injected intraperitoneally cyclophosphamide (30 mg/kg), after 2 day 1 ml of suspension containing 1 mg of ovalbumin (OVA) and 100 mg of aluminum hydroxide was injected intraperitoneally. After 3 weeks, 1 ml of mixture of OVA (10 μg) and aluminum hydroxide (100 mg) was intraperitoneally injected as additional immunization to sensitize systemically. After the lapse of 3 weeks, local sensitization, each 10 μl of 1% OVA solution was dripped in both nasal cavities four times at 2-4 day intervals. After 5-7 days from the final sensitization, nasal antigen challenge was performed by dripping 10 μl of 1% OVA solution to the guinea pigs in the both nasal cavity. Five hours after nasal challenge, the guinea pigs were exsanguinated under the anesthetization. The nasal airways were washed by infusing 10 ml of saline, and the washings were collected. The washing were centrifuged, the cell pellets were resuspended in 100 μl of saline, and the total cells were counted by the Turk stain. Then smear samples were prepared, and the cells were classified after the May-Grunwald-Giemsa stain. The eosinophil number was determined by multiplying the rate of eosinophils with the total cells. […]

PGD2 receptor [2] = biological target: T1, PGD2 receptor; experiment: Antagonistic activity against PGD2 receptor using human platelet (inhibition of PGD2-induced cAMP increase); format: cell-based; conditions: human washed platelets, 0.1 μM PGD2, 3-isobutyl-1-methylxanthine 0.5 mM, 37° C.; read-out: IC50, inhibition of cAMP increased by PGD2
Description: Evaluation of Antagonistic Activity Against PGD2 Receptor Using Human Platelet
Peripheral blood was obtained from a healthy volunteer using a syringe in which 1/9 volume of citric acid/dextrose solution has been previously added. The syringe was subjected to centrifugation at 180 g for 10 min to obtain the supernatant (PRP:platelet rich plasma). the resultant PRP was washed 3 times with a washing buffer and the number of platelet was counted with a micro cell counter. A suspension adjusted to contain platelet at a final concentration of 5×10^8 /ml was warmed at 37° C., and then subjected to the pre-treatment with 3-isobutyl-1-methylxanthine (0.5 mM) for 5 min. To the suspension was added a test compound diluted at various concentration. Ten-minute later, the reaction was induced by the addition of 0.1 μM PGD2 and , 2-minute later, stopped by the addition of hydrochloric acid. The platelet was destroyed with an ultrasonic homogenizer. After centrifugation, the cAMP in the supernatant was determined by radioummunoassay. PGD2 receptor antagonism of a drug was evaluated as follows. The inhibition rate regarding cAMP increased by the addition of PGD2 was determined at individual concentration, and then the concentration of the drug required for 50% inhibition (IC50) was calculated.

Hartley male guinea pig = experiment: Nasal blocking model (intranasal pressure after OVA antigen exposure); format: in vivo; conditions: oral 60 min before 3% OVA antigen exposure, dose not given
Description: Experiment Using Nasal Blocking Model
The method used for measuring the intranasal pressure for evaluating the anti-nasal blockage using guinea pigs is described below.
A 1% ovalbumin (OVA) solution was treated with an ultrasonic nebulizer to obtain an aerosol. Hartley male guinea pig was sensitized by inhaling twice the aerosol for 10 min at one-week interval. Seven-day after the sensitization, the guinea pig was exposed to an antigen to initiate the reaction. Briefly, the trachea was incised under the anesthesia with pentobarbital (30 mg/kg, i.p.) and cannulas were inserted at the pulmonary side was connected with an artificial respirator that provides 4 ml air 60 times/min. After arresting the spontaneous respiration of the guinea pig with Gallamin (2 mg/kg, i.v.), air was supplied to the snout side with an artificial respirator at the frequency of 70 times/min, and the flow rate of 4 ml air/time, and the atmospheric pressure required for the aeration was measured by the use of a transducer fitted at the branch. The measurement was used as a parameter of the nasal cavity resistance. The exposure of an antigen was carried out by generating aerosol of 3% OVA solution for 3 min between the respirator and the nasal cavity cannula. The test drug was administered orally 60 min before the antigen exposure. […]

Row | IC50 (PGD2 receptor [1]) [nM] | IC50 (PGD2 receptor [2]) [nM] | Compound | inhibition of infiltration of eosinophils in the nasal cavity, significance versus vehicle (FIG. 1) (eosinophils) | Inhibitory Rate, intranasal pressure AUC for 30 min vs vehicle (Hartley male guinea pig) [%]
1 | 0.4 | 1.3 | CC1(C)[C@H]2C[C@H](C/C=C\CCCC(=O)O)[C@@H](NC(=O)c3csc4ccc(O)cc34)[C@@H]1C2 [IA-a-5] | significantly different from vehicle at p<0.01 | 96
2 | 3.3 |  | CC1(C)[C@H]2C[C@H](C/C=C\CCCC(=O)O)[C@@H](NC(=O)c3csc4ccc(Br)cc34)[C@@H]1C2 [IA-a-2] |  | 
3 |  | 61 | CC1(C)[C@H]2C[C@@H](C/C=C/CCCC(=O)O)[C@@H](NC(=O)c3csc4ccc(O)cc34)[C@@H]1C2 [IA-c-2] |  | 
4 | 1.3 | 2.8 | CC1(C)[C@H]2C[C@H](C/C=C\CCCC(=O)O)[C@@H](NC(=O)c3csc4cc(O)ccc34)[C@@H]1C2 [IA-a-7] |  | 
5 |  | 55 | CC1(C)[C@H]2C[C@@H](C/C=C\CCCC(=O)O)[C@@H](NC(=O)c3csc4ccc(O)cc34)[C@@H]1C2 [IA-c-1] |  | 
6 |  | 41 | CC1(C)[C@H]2C[C@H](NC(=O)c3csc4ccccc34)[C@@H](C/C=C\CCCC(=O)O)[C@@H]1C2 [IB-a'-1] |  | 
7 |  | 57 | CC1(C)[C@H]2C[C@@H](NC(=O)c3csc4ccc(O)cc34)[C@H](C/C=C\CCCC(=O)O)[C@@H]1C2 [IB-b'-3] |  | 
8 |  | 28 | CC1(C)[C@H]2C[C@H](C/C=C/CCCC(=O)O)[C@@H](NC(=O)c3csc4ccc(O)cc34)[C@@H]1C2 [IA-a-17] |  | 
9 | 6.5 | 0.21 | CC(=O)Oc1ccc2scc(C(=O)N[C@@H]3[C@@H](C/C=C\CCCC(=O)O)C[C@H]4C[C@@H]3C4(C)C)c2c1 [IA-a-9] |  | 

— patent US6083974A, “Benzothiophenecarboxamide derivatives and PGD2 antagonists comprising them” (Shionogi & Co., Ltd., priority 1996, dated 2000)
